Assay results from patent US8361992B2 (Dekk-Tec, Inc., priority 2009, dated 2013).
Where two headings read alike, the source gives them in different places.

Tests used:
[1] = for AUC values for acrolein (trapezoidal rule): 0-120, IV CPA 250, IFOS 400, 4-HOOI 100 mg/kg
Experimental: Half of each plasma sample was lyophilized to collect ACR in a dry ice/methanol-cooled trap. […] For chloroacetaldehyde, the other half of the plasma sample was treated directly with the above trapping agent and the same procedure was used (6 mins) compared with synthetic controls.

[2] = tested on: mice; test: Mouse IV dosing toxicology; format: in vivo
Experimental: Specific emphasis was placed on documenting potential toxicities associated with IV administered peroxides, namely convulsions, hemolysis, arterial gas emboli-pulmonary damage, and neurological pathology.
Ranges of dosing were 60-400 mg/kg. […] Animals were monitored for 14 days post treatment.

[3] = tested on: Human breast cancer cell line MX-1; test: MX-1 xenograft implanted SC in mice; format: in vivo; conditions: IP once per day for 5 days; for MX-1 T-C: 4-HOOI 90, IFOS 40, IPM 40 mg/kg/day
Experimental: (§2) Human breast cancer cell lines MX-1 and ZR75-1 were implanted subcutaneously (SC). Human glioblastoma cell line U251 was implanted intracranially (IC) and P388 CPA-resistant murine leukemia cell line was injected intraperitoneally (IP). For IC implanted tumor cells, treatment was begun 5-7 days post-inoculation. For SC tumors, treatment was begun when the tumor was palpable (5-10 days post-inoculation). Mice were treated with the indicated dose of drug intraperitoneally once per day for 5 days.

[4] = tested on: SK-MEL-31 Melanoma; test: SK-MEL-31 xenograft (sc); format: in vivo, human; conditions: sc implant; intraperitoneal treatment; MTD
Experimental: (§1) 4-HOOI was tested against a number of additional solid tumor xenografts and leukemias.

[5] = tested on: Rat glioma 9 L cells; test: 9L rat glioma implanted subcutaneously in rats; conditions: doses as in Table 7
Experimental: Rat glioma 9 L cells (10^6 cells) were implanted subcutaneously in female Hsd:SD rats. […] Temozolomide (TMZ) was administered orally three times, four days apart. The rats were followed for 54 days.

[6] = tested on: SAOS-2 Osteosarcoma; test: SAOS-2 xenograft (sc); format: in vivo, human; conditions: sc implant; intraperitoneal treatment; MTD
Experimental: as §1

[7] = tested on: NCI-H23 Non-small cell lung carcinoma; test: NCI-H23 xenograft (sc); format: in vivo, human; conditions: sc implant; intraperitoneal treatment; MTD
Experimental: as §1

[8] = tested on: NCI-H69 Small cell lung carcinoma; test: NCI-H69 xenograft (sc); format: in vivo, human; conditions: sc implant; intraperitoneal treatment; MTD
Experimental: as §1

[9] = tested on: Human breast cancer cell line ZR75-1; test: ZR-75-1 xenograft implanted SC in mice; format: in vivo; conditions: IP once per day for 5 days, 4-HOOI 90, IFOS 40 mg/kg/day
Experimental: as §2

[10] = tested on: OVCAR-3 Ovarian; test: OVCAR-3 xenograft (sc); format: in vivo, human; conditions: sc implant; intraperitoneal treatment; MTD
Experimental: as §1

[11] = tested on: P388 CPA-resistant murine leukemia cell line; test: P388/CPA leukemia injected IP in mice; format: in vivo; conditions: IP once per day for 5 days, 4-HOOI 90, IFOS 40, IPM 40 mg/kg/day
Experimental: as §2

[12] = tested on: Sprague Dawley female rats; test: Rat neurobehavioral modified Morris water maze and pathology; format: in vivo; conditions: for Pathology five days later (gross, confirmed by histology) / Memory and learning time intervals: single IP dose: IFOS 400, 4-HOOI 200, 4-HOOI.Lys 300 mg/kg; for Memory and learning time intervals: 1, 2, 3, 20 hours post-dosing
Experimental: Rat Dosing: Neuro-oncology studies with 4-HOOI were conducted to evaluate the product as compared to ifosfamide in a rat neurobehavioral modified Morris water maze. Ifosfamide produces coma and neuro-edema in high doses. […] Timings (six at each time) were measured at 1, 2, 3, and 20 hours post-dosing to monitor learning and memory. […] Histological examinations confirmed the gross observations.

[13] = tested on: Human glioblastoma cell line U251; test: U251 glioblastoma implanted intracranially in mice; conditions: in vivo
Experimental: as §2

[14] = tested on: 9 L rat glioma cells; test: Activity in vitro against 9L rat glioma cells in culture; format: cell-based; conditions: for IC50: dose range 0.1-1.00 μg/ml
Experimental: The IC50 for each compound and also ifosfamide was determined (Table 3).

[15] = tested on: humans; conditions: cited from earlier work
[16] = tested on: Human glioblastoma cell line U251; conditions: cited from earlier work
[17] = Stability profile of bulk 4-HOOI vs. 4-HOOI.Lys (HPLC, NMR)

## O=P1(N(CCCl)CCCl)NCCCO1 (stereo not shown) [CPA, cyclophosphamide]
[1]
  AUC values for acrolein (trapezoidal rule): 1520 mg·min/mL

## O=P1(NCCCl)OCCCN1CCCl (stereo not shown) [IFOS, ifosfamide]
[2]
  Highest tolerated single IV dose: 400 mg/kg
[3]; 4-HOOI 90, IFOS 40 mg/kg/day
  MX-1 LTS (long term survivors): (No LTS)
[3]
  MX-1 T-C: 8.6 days
[4]
  T-C (Days Delay), SK-MEL-31: 10.9 days
[5]; rats bearing 9L glioma
  Hematuria: observed
[6]
  T-C (Days Delay), SAOS-2: >61.9 days
[7]
  T-C (Days Delay), NCI-H23: 13.7 days
[8]
  T-C (Days Delay), NCI-H69: 6.2 days
[9]
  ZR-75-1 CR (complete response): (17% CR)
  ZR-75-1 T-C: >43.8 days
[10]
  T-C (Days Delay), OVCAR-3: 12.4 days
[11]
  P388/CPA (% ILS): +42 % ILS
[12]; IFOS 400 mg/kg single IP dose
  Clinical signs: shakes and tremors
[12]; IFOS 400 mg/kg single IP dose, five days later
  Bone marrow evaluations: pancytopenia
[12]
  Pathology five days later (gross, confirmed by histology): hemorrhagic cystitis with gross bleeding
  Memory and learning time intervals: normal learning behavioral patterns
[1]
  AUC values for acrolein (trapezoidal rule): 960 mg·min/mL
[1]; mice
  Urinary hemorrhagic cystitis: the pathology occurred at day 5 post dosing
[13]
  U251 CR (complete response, animals): (0/5 CR)
  U251 T-C: 50 days
[14]
  Notes: Inactive without
[14]; Glioma cell, read-out: IC50
  IC50: > 1 µg/mL

## O=P(O)(NCCCl)NCCCl [IPM, isophosphoramide mustard]
[3]
  MX-1 T-C: 2.1 days
[15]
  Dose limiting toxicity in humans: renal tubular necrosis was dose limiting
[11]
  P388/CPA (% ILS): +85 % ILS

## COc1nc(C(Cl)(Cl)Cl)c(Cl)c(OC(=O)O[C@H]2CC[C@@]3(C)C(=CC[C@H]4[C@@H]5CC[C@H]([C@H](C)CCCC(C)C)[C@@]5(C)CC[C@@H]43)C2)c1Cl [DM-CHOC-PEN, 4-demethylcholesteryloxycarbonylpenclomedine]
[16]; Morgan et al. 2009
  LTS in U251 glioblastoma: 52 % LTS

## NCCCCC(N)C(=O)O.O=P1(NCCCl)OCCC(OO)N1CCCl (stereo not shown) [4-HOOI•Lys]
[17]; Time 0
  NMR: Stable
[17]; Time 2 months
  NMR: Stable
[17]; Time 4 months
  NMR: Stable
[17]; Time 6.5 months
  NMR: Stable
[17]; Time 10 months
  NMR: Stable
[5]; SC in female Hsd:SD rats, followed 54 days
  CR (animals): 9/9
[5]; rats bearing 9L glioma
  Hematuria: No hematuria
  Weight loss: No weight loss
[12]
  Pathology five days later (gross, confirmed by histology): did not reveal hemorrhagic cystitis, renal tubular necrosis, or bone marrow depletion
  Memory and learning time intervals: no significant differences
[14]
  Notes: Stabilized form prevented
  IC50: >1.0 µg/mL

## O=NN(CCCl)C(=O)NCCCl [BCNU, bis-chloronitrosourea]
[16]; gold standard for the treatment of gliomas
  ILS: 72 % ILS
